Data reported in patent US20250288599A1, “PHARMACEUTICAL COMPOSITIONS AND METHODS FOR TREATING OSTEOARTHRITIS” (INSIGNIA PHARMACEUTICALS, LLC, priority 2024, published 2025).

Legend:
[1] = tested on: Elastin (ELN) expression in normal human dermal fibroblasts (NHDF); assay: ELN mRNA in NHDF activated with TGF-β1 or IL-1β, 24 h, qRT-PCR; type: cell-based; details: 100 mM Lac or 0.1 mM Dxp
Description: After 24 hours, total mRNA was isolated and delta-delta Cp relative expression was calculated versus untreated medium controls, normalized to the housekeeping gene, GAPDH. Statistical analysis was then conducted via t-test.

[2] = tested on: RUNX2 expression in human osteoarthritic chondrocytes; assay: RUNX2 relative expression in low passage osteoarthritic chondrocytes, 7, 14 or 28 days; type: cell-based; details: 7, 14, 28 days
Description: Media was exchanged bi-weekly. Chondrocytes cultured for 7 days, 14 days, or 28 days were analyzed to assess SOX9 and RUNX2 expression. SOX9 is a transcription factor vital to the development and maintenance of cartilage and is required for chondrogenesis. SOX9 promotes chondrocyte survival and transcriptionally activates cartilage-specific genes. SOX9 is repressed in hypertrophic chondrocytes (i.e. terminally differentiated osteoblast-like cells).
The RUNX2 expression is provided at 7, 14, and 28 days of culturing.

[3] = tested on: Col2a1 expression in low passage osteoarthritic chondrocytes; assay: Col2a1 relative expression in low passage osteoarthritic chondrocytes; type: cell-based, human; details: day 28
[4] = tested on: SOX9 expression in dedifferentiated osteoarthritic chondrocytes; assay: SOX9 relative expression in dedifferentiated osteoarthritic chondrocytes treated 14 days with Lac; type: cell-based, human
Description: Lac is commonly thought to be simply an end-product of anaerobic glycolysis; however, it may also have immunomodulatory effects and promote protein modifications that alter gene expression. The goal of this experiment was to determine how Lac supplementation affects early-phase, inflammatory, and late-stage redifferentiation in chondrocyte models. To establish how Lac may influence inflammation early in osteoarthritis, monolayers of normal human chondrocytes were exposed to Lac dose responses of up to 100 millimolar, concurrently with 0.5 nanograms per milliliter IL-1β for 48 hours. The release of PGE2 was then quantified using competitive EIA. To investigate how Lac affects transcriptional programs in dedifferentiated osteoarthritic chondrocytes, monolayer cultures and micromass pellets were treated for 14 days with 100 millimolar final concentrations of Lac, with and without 10 nanograms per milliliter transforming growth factor beta 3 (TGF-β3). Total RNA was then isolated, and relative expression of SOX9 or Col2a1 was calculated using qRT-PCR, normalized to GAPDH. […] Lac may also have beneficial effects on osteoarthritic chondrocytes; 100 millimolar final Lac concentrations increased the relative expression of SOX9 and Col2a1 by 8-fold and 1600-fold, respectively, in monolayer cultures. […]

[5] = tested on: SOX9 expression in dedifferentiated osteoarthritic chondrocytes; assay: SOX9 relative expression in high passage osteoarthritic chondrocyte monolayer model with TGF-β; type: cell-based, human; details: 14 days in culture with TGF-β; 28 mM Lac, 100 mm LA
Description: These compounds were tested in a high passage osteoarthritic chondrocyte monolayer model, alone or in combination with other agents, for both transcriptional regulation of standard markers and IL-1β-induced PGE2 production.

[6] = tested on: ACAN expression in human osteoarthritic chondrocytes; assay: ACAN relative expression in human osteoarthritic chondrocytes (passage 5) cultured 27 days; type: cell-based; details: 50 micromolar Dec, 0.1 μM Dxp, 100 mM Lac
Description: Delta-delta relative gene expression was employed to determine ACAN regulation in the 27-day samples referenced in Examples 15 and 16. A 3.81±0.77-fold increase in ACAN expression in the cells after 27 days of Lac treatment was observed. […] Without being bound by theory, it is hypothesized that these findings indicate that metabolic management and/or metabolite feedback loops represent promising therapy targets for osteoarthritis. Results associated with Example 17 are depicted in FIG. 53.

For `CC(O)C(=O)O` (centres unmarked) [Lac, lactate], the “relative expression of ELN” value ([1]; IL-1β 0.1 ng/ml, IL-1β alone 18±12, n=3) was 0.86±3, the “relative expression of ELN” value ([1]; TGF-β1 10 ng/ml, TGF-β1 alone 110±35, n=3) was 45+36 and the RUNX2 expression [2] was “temporal decrease in RUNX2”. For the same molecule, the “relative expression of Col2a1” value [3] was “elevated Col2a1 relative expression”, the “increase in SOX9” value ([4]; 100 millimolar Lac with TGF-β3, 14 days, micromass cultures) was 9 fold and the “increase in relative expression of SOX9” value ([4]; 100 millimolar Lac, 14 days, monolayer cultures) was 8 fold. For the same molecule, the “increase in SOX9 transcription” value [5] was 2 fold and the “ACAN delta-delta relative gene expression” value [6] was 3.81±0.77 fold.
